Measured values from PubChem BioAssay (NCI).
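Briefly, cells in 96-well plates were exposed to five compound concentrations for 48 h, and endpoints were estimated by linear interpolation. Definition used: TGI = concentration required for complete inhibition of growth.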

Legend:
Assay in all cases: NCI anticancer screen, dose series, 48 h
SK-OV-3 ovarian = test system: SK-OV-3 ovarian
DU-145 prostate = test system: DU-145 prostate
MALME-3M melanoma = test system: MALME-3M melanoma
UACC-257 melanoma = test system: UACC-257 melanoma
BT-549 breast = test system: BT-549 breast
SF-295 CNS = test system: SF-295 CNS
OVCAR-3 ovarian = test system: OVCAR-3 ovarian
CAKI-1 renal = test system: CAKI-1 renal
NCI-H23 lung = test system: NCI-H23 lung
TK-10 renal = test system: TK-10 renal
SK-MEL-5 melanoma = test system: SK-MEL-5 melanoma
T-47D breast = test system: T-47D breast
MDA-N = test system: MDA-N
COLO 205 colon = test system: COLO 205 colon
A549 NSCLC = test system: A549 NSCLC
HOP-62 NSCLC = test system: HOP-62 NSCLC
CCRF-CEM leukemia = test system: CCRF-CEM leukemia
KM12 colon = test system: KM12 colon
HCT-15 colon = test system: HCT-15 colon
786-0 renal = test system: 786-0 renal
A498 renal = test system: A498 renal
RXF 393 renal = test system: RXF 393 renal
MDA-MB-435 = test system: MDA-MB-435
HCT-116 colon = test system: HCT-116 colon
UACC-62 melanoma = test system: UACC-62 melanoma
SNB-19 CNS = test system: SNB-19 CNS
RPMI-8226 leukemia = test system: RPMI-8226 leukemia
IGROV1 ovarian = test system: IGROV1 ovarian
ACHN renal = test system: ACHN renal
HOP-92 NSCLC = test system: HOP-92 NSCLC
NCI-H460 lung = test system: NCI-H460 lung
U251 CNS = test system: U251 CNS
LOX IMVI melanoma = test system: LOX IMVI melanoma
K-562 leukemia = test system: K-562 leukemia
SF-539 CNS = test system: SF-539 CNS
SW-620 colon = test system: SW-620 colon
EKVX NSCLC = test system: EKVX NSCLC
MCF7 breast = test system: MCF7 breast
PC-3 prostate = test system: PC-3 prostate
NCI/ADR-RES ovarian = test system: NCI/ADR-RES ovarian
M14 melanoma = test system: M14 melanoma
OVCAR-8 ovarian = test system: OVCAR-8 ovarian
MOLT-4 leukemia = test system: MOLT-4 leukemia
SN12C renal = test system: SN12C renal
OVCAR-5 ovarian = test system: OVCAR-5 ovarian
HT29 colon = test system: HT29 colon
HL-60(TB) leukemia = test system: HL-60(TB) leukemia
NCI-H226 lung = test system: NCI-H226 lung
OVCAR-4 ovarian = test system: OVCAR-4 ovarian
SNB-75 CNS = test system: SNB-75 CNS
SK-MEL-28 melanoma = test system: SK-MEL-28 melanoma
UO-31 renal = test system: UO-31 renal
SF-268 CNS = test system: SF-268 CNS
HS 578T breast = test system: HS 578T breast
MDA-MB-231 breast = test system: MDA-MB-231 breast
NCI-H522 lung = test system: NCI-H522 lung
SK-MEL-2 melanoma = test system: SK-MEL-2 melanoma
HCC-2998 colon = test system: HCC-2998 colon

Measured: TGI

CC(C)(C)c1ccc2c(c1)C(=O)c1ccccc1C2=O
85 µM: HOP-92 NSCLC
87 µM: SNB-75 CNS
66.3 µM: MCF7 breast
92.6 µM: NCI-H226 lung
60.3 µM: COLO 205 colon
40.2 µM: SK-MEL-5 melanoma
> 100 µM: SK-OV-3 ovarian | DU-145 prostate | MALME-3M melanoma | UACC-257 melanoma | BT-549 breast | SF-295 CNS | OVCAR-3 ovarian | CAKI-1 renal | NCI-H23 lung | TK-10 renal | T-47D breast | MDA-N | A549 NSCLC | HOP-62 NSCLC | CCRF-CEM leukemia | KM12 colon | HCT-15 colon | 786-0 renal | A498 renal | MDA-MB-435 | HCT-116 colon | UACC-62 melanoma | SNB-19 CNS | RPMI-8226 leukemia | IGROV1 ovarian | ACHN renal | NCI-H460 lung | U251 CNS | LOX IMVI melanoma | K-562 leukemia | SF-539 CNS | SW-620 colon | PC-3 prostate | NCI/ADR-RES ovarian | M14 melanoma | OVCAR-8 ovarian | SN12C renal | OVCAR-5 ovarian | HL-60(TB) leukemia | OVCAR-4 ovarian | SK-MEL-28 melanoma | UO-31 renal | SF-268 CNS | HS 578T breast | MDA-MB-231 breast
80 µM: RXF 393 renal
68.8 µM: HT29 colon
65.8 µM: MOLT-4 leukemia
75.9 µM: EKVX NSCLC

COc1cc2oc(-c3ccc4c(c3)OCO4)c(OC)c(=O)c2c(OC)c1OC
39.8 µM: HOP-92 NSCLC
93 µM: HOP-62 NSCLC
94 µM: SNB-75 CNS
> 100 µM: SK-OV-3 ovarian | DU-145 prostate | MALME-3M melanoma | UACC-257 melanoma | BT-549 breast | SF-295 CNS | OVCAR-3 ovarian | CAKI-1 renal | NCI-H23 lung | TK-10 renal | SK-MEL-5 melanoma | T-47D breast | NCI-H522 lung | MDA-N | COLO 205 colon | A549 NSCLC | CCRF-CEM leukemia | KM12 colon | HCT-15 colon | 786-0 renal | A498 renal | RXF 393 renal | MDA-MB-435 | HCT-116 colon | UACC-62 melanoma | SNB-19 CNS | IGROV1 ovarian | ACHN renal | NCI-H460 lung | U251 CNS | LOX IMVI melanoma | K-562 leukemia | SF-539 CNS | SW-620 colon | EKVX NSCLC | MCF7 breast | PC-3 prostate | NCI/ADR-RES ovarian | M14 melanoma | OVCAR-8 ovarian | SK-MEL-2 melanoma | MOLT-4 leukemia | HCC-2998 colon | SN12C renal | OVCAR-5 ovarian | HT29 colon | HL-60(TB) leukemia | NCI-H226 lung | OVCAR-4 ovarian | SK-MEL-28 melanoma | UO-31 renal | HS 578T breast | MDA-MB-231 breast
99.5 µM: SF-268 CNS

Oc1ccc2c(c1)OCC1c3ccccc3OC21 (stereo not drawn)
86.7 µM: EKVX NSCLC
83.4 µM: HL-60(TB) leukemia
65.2 µM: MOLT-4 leukemia
> 100 µM: SK-OV-3 ovarian | DU-145 prostate | UACC-257 melanoma | BT-549 breast | SF-295 CNS | OVCAR-3 ovarian | CAKI-1 renal | NCI-H23 lung | TK-10 renal | SK-MEL-5 melanoma | T-47D breast | MDA-N | COLO 205 colon | HOP-62 NSCLC | CCRF-CEM leukemia | KM12 colon | HCT-15 colon | 786-0 renal | A498 renal | RXF 393 renal | MDA-MB-435 | HCT-116 colon | UACC-62 melanoma | SNB-19 CNS | RPMI-8226 leukemia | IGROV1 ovarian | ACHN renal | HOP-92 NSCLC | NCI-H460 lung | U251 CNS | LOX IMVI melanoma | K-562 leukemia | SF-539 CNS | SW-620 colon | MCF7 breast | PC-3 prostate | NCI/ADR-RES ovarian | M14 melanoma | OVCAR-8 ovarian | SK-MEL-2 melanoma | HCC-2998 colon | SN12C renal | OVCAR-5 ovarian | HT29 colon | NCI-H226 lung | OVCAR-4 ovarian | SNB-75 CNS | SK-MEL-28 melanoma | UO-31 renal | SF-268 CNS | HS 578T breast | MDA-MB-231 breast

Nc1ncnc2nc(N3CCN(CCO)CC3)[nH]c12
> 100 µM: SK-OV-3 ovarian | DU-145 prostate | MALME-3M melanoma | UACC-257 melanoma | BT-549 breast | SF-295 CNS | OVCAR-3 ovarian | CAKI-1 renal | NCI-H23 lung | TK-10 renal | SK-MEL-5 melanoma | T-47D breast | NCI-H522 lung | MDA-N | COLO 205 colon | A549 NSCLC | HOP-62 NSCLC | CCRF-CEM leukemia | KM12 colon | HCT-15 colon | 786-0 renal | A498 renal | RXF 393 renal | MDA-MB-435 | HCT-116 colon | UACC-62 melanoma | SNB-19 CNS | RPMI-8226 leukemia | IGROV1 ovarian | ACHN renal | NCI-H460 lung | U251 CNS | LOX IMVI melanoma | K-562 leukemia | SF-539 CNS | SW-620 colon | EKVX NSCLC | MCF7 breast | PC-3 prostate | NCI/ADR-RES ovarian | M14 melanoma | OVCAR-8 ovarian | SK-MEL-2 melanoma | MOLT-4 leukemia | HCC-2998 colon | SN12C renal | OVCAR-5 ovarian | HT29 colon | HL-60(TB) leukemia | NCI-H226 lung | OVCAR-4 ovarian | SK-MEL-28 melanoma | UO-31 renal | SF-268 CNS | HS 578T breast | MDA-MB-231 breast

O=S(=O)(O)c1ccc(N=Nc2ccc(N=Nc3c(O)c(S(=O)(=O)O)cc4cc(S(=O)(=O)O)ccc34)cc2)cc1
> 100 µM: SK-OV-3 ovarian | DU-145 prostate | MALME-3M melanoma | UACC-257 melanoma | BT-549 breast | SF-295 CNS | OVCAR-3 ovarian | CAKI-1 renal | NCI-H23 lung | TK-10 renal | SK-MEL-5 melanoma | T-47D breast | NCI-H522 lung | MDA-N | COLO 205 colon | A549 NSCLC | HOP-62 NSCLC | CCRF-CEM leukemia | KM12 colon | HCT-15 colon | 786-0 renal | RXF 393 renal | MDA-MB-435 | HCT-116 colon | UACC-62 melanoma | SNB-19 CNS | RPMI-8226 leukemia | IGROV1 ovarian | ACHN renal | HOP-92 NSCLC | NCI-H460 lung | U251 CNS | K-562 leukemia | SF-539 CNS | SW-620 colon | EKVX NSCLC | MCF7 breast | PC-3 prostate | NCI/ADR-RES ovarian | M14 melanoma | OVCAR-8 ovarian | SK-MEL-2 melanoma | MOLT-4 leukemia | HCC-2998 colon | SN12C renal | OVCAR-5 ovarian | HT29 colon | HL-60(TB) leukemia | NCI-H226 lung | OVCAR-4 ovarian | SK-MEL-28 melanoma | UO-31 renal | SF-268 CNS | HS 578T breast | MDA-MB-231 breast
